This is an account of results in PMC11768251, “Τhiazolidine-4-One Derivatives with Variable Modes of Inhibitory Action Against DPP4, a Drug Target with Multiple Activities and Established Role in Diabetes Mellitus Type II” (Pharmaceuticals, 2025).

Where two headings read alike, the source gives them in different places.

The target of data set [1] is T1, DPP4 (Homo sapiens, UniProt P27487). The data set can be described thus: In vitro DPP4 inhibition assay, fluorometric, H-Gly-Pro-amidomethyl coumarin substrate. Conditions: for logIC50: Figure 4, competitive inhibitors.
T1 sequence (P27487 whole entry): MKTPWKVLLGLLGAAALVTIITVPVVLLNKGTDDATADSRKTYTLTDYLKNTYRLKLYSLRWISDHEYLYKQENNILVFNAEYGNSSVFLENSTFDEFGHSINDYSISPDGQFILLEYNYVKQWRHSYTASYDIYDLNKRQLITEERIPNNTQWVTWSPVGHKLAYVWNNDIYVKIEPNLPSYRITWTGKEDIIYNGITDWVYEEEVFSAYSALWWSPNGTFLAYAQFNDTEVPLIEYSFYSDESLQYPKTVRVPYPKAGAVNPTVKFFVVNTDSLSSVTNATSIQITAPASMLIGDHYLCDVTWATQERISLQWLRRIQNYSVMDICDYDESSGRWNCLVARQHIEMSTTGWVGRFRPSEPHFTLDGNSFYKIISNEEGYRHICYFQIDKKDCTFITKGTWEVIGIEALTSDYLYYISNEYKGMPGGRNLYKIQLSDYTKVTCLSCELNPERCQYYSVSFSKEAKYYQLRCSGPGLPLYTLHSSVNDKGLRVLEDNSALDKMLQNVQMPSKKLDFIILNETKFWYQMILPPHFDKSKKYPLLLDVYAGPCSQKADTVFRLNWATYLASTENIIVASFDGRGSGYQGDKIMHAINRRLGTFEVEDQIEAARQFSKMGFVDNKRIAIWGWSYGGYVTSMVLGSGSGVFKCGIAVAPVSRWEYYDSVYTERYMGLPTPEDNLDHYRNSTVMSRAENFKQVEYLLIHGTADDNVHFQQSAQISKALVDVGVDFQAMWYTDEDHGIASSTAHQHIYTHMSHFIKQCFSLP
Procedure: The compounds were screened for their inhibitory activity against DPP4 by a fluorometric assay, measuring the hydrolysis rate of the substrate Gly-Pro-amidomethyl coumarin in the absence and presence of the inhibitor. […] DPP-4 activity was assessed by measuring the hydrolysis rate of the substrate H-Gly-Pro-amidomethyl coumarin. The resulting fluorescent product, 7-Amino-4-Methyl Coumarin (AMC), was monitored with a Tecan Pro2000 microplate fluorescence reader (Tecan Ltd, Zurich, Switzerland) at an excitation wavelength of 360 nm and an emission wavelength of 460 nm, with measurements taken every 60 s for 30 min. The inhibitors, dissolved in DMSO, were added to the reaction buffer (20 mM Tris-HCl, pH 8, 100 mM NaCl, and 1 mM EDTA) at 10 µL per reaction, along with 0.17 µg/mL of enzyme, and incubated for 10 min. After incubation, 50 µL of the appropriate substrate concentration was added, bringing the total reaction volume to 100 µL. The inhibition (%) was calculated as ((Fc − Fi)/Fc) × 100, where Fc is the fluorescence value of the control (no inhibitor-total activity) and Fi is the fluorescence value in the presence of the inhibitor. […] The volume of 10 μL DMSO was added to the total activity control instead of the inhibitor. A blank containing all other components except for the enzyme was abstracted in all cases. Each determination was performed in triplicate.
Data set [2] has as its target T1, DPP4. Kind of data set: Inhibition kinetic analysis of DPP4 (Lineweaver–Burk plot). The conditions noted are these: for Κm of the enzyme in the presence of the compound: without compound 49.7 ± 3.8; for Inhibition Mode: from Lineweaver–Burk plot, substrate 17–80 μM. The data set is classed as biochemical. On the procedure:
To further investigate the mode of inhibition, Lineweaver–Burk curves were prepared for some of the compounds.
The concentration range of the substrate (H-Gly-Pro-AMC) was 17–80 μM, and the final concentration of DPP-4 was 0.17 µg/mL. The maximum enzymatic reaction rate (Vmax) and Michaelis constant (Km) were calculated according to the Lineweaver–Burk plot.

The conditions of data set [3]: cited from earlier work.
Setting [4] is: read-out: % Inhibition, 50 μΜ Substrate.
The mark [5] stands for this setting: read-out: % Inhibition, 100 μΜ Substrate.
Where [6] appears, read: compound concentration 15.000 μΜ.
[7] abbreviates: compound concentration 0.080 μΜ.
Setting [8] is: compound concentration 0.100 μΜ.

For `O=C1CSC(c2ccc(F)cc2)N1c1nc2ccc(Cl)cc2s1` (stereo not shown) [c1], at DPP4 [1] (IC50, DPP4, triplicate), the IC50 (commonly the midpoint of a concentration-inhibition curve) was > 20000 nM. Also, the inhibition (commonly the relative decrease from the control value, in per cent) at 10 µM amounted to 33.5% at DPP4 [1] (setting [4]) and 11.4% at DPP4 [1] (setting [5]).
In the case of `O=C1CSC(c2ccc([N+](=O)[O-])cc2)N1c1nc2ccc(Cl)cc2s1` (stereo not shown) [c2], on DPP4 [2] (setting [6]), the “Κm of the enzyme in the presence of the compound” value (“Κm of the enzyme” below) came out at 87.6 ± 4.8. Besides, at DPP4 [2], the “Inhibition Mode” value is recorded as “competitive”. On DPP4 [1] (IC50, DPP4, triplicate), half-maximal inhibition (IC50) was put at 8600 ± 200 nM. In addition, the inhibition at 10 µM was found to be 66% on DPP4 [1] (setting [4]) and 14.1% at DPP4 [1] (setting [5]).
In the case of `O=C1CSC(c2ccc(Cl)cc2)N1c1nc2ccc(Cl)cc2s1` (stereo not shown) [c3], at DPP4 [1], the logIC50 stood at 4.097. Besides, the half-inhibitory concentration (IC50) on DPP4 [1] (IC50, DPP4, triplicate) amounted to 12500 ± 200 nM. The values for the inhibition at 10 µM at DPP4 [1] (setting [4]) and at DPP4 [1] (setting [5]) were 41.6% and 28%, respectively.
`COc1ccc(C2SCC(=O)N2c2nc3ccc(Cl)cc3s2)cc1` (stereo not shown) [c4]: the “Κm of the enzyme” value on DPP4 [2] (setting [6]) amounted to 19.4 ± 9.3. In addition, the “Inhibition Mode” value at DPP4 [2] was “uncompetitive”. This compound also had an IC50 against DPP4 [1] (IC50, DPP4, triplicate) of 11500 ± 1500 nM. In addition, the inhibition at 10 µM on DPP4 [1] (setting [4]) is 48.5%; at DPP4 [1] (setting [5]) it was 68.5%.
Take `O=C1CSC(c2c(Cl)cccc2Cl)N1c1nc2ccc(OC(F)(F)F)cc2s1` (stereo not shown) [h1]: the logIC50 at DPP4 [1] turned out to be 1.491. At DPP4 [1] (IC50, DPP4, triplicate), this compound yielded an IC50 of 31 ± 3.8 nM. Also, the results for the inhibition at 0.08 µM on DPP4 [1] (setting [4]) and on DPP4 [1] (setting [5]) were 79.8% and 12%, respectively.
On to `O=C1CSC(c2c(F)cccc2Cl)N1c1nc2ccc(OC(F)(F)F)cc2s1` (stereo not shown) [h3, 3-(6-OCF3-benzo[d]thiazol-2-yl)-2-(2-F,6-Cl-phenyl) thiazolidin-4-one], for which the “Κm of the enzyme” value at DPP4 [2] (compound concentration 0.010 μΜ) is 103.1 ± 9.3. Further, at DPP4 [2], the “Inhibition Mode” value is recorded as “competitive”. This compound yielded a logIC50 at DPP4 [1] of 1.079. The IC50 on DPP4 [1] (IC50, DPP4, triplicate) came out at 12 ± 0.5 nM. Also, the inhibition at 0.08 µM at DPP4 [1] (setting [4]) was determined as 62%; at DPP4 [1] (setting [5]) it was 20%.
As to `O=C1CSC(c2cccc(Cl)c2Cl)N1c1nc2ccc(OC(F)(F)F)cc2s1` (stereo not shown) [h4], the “Κm of the enzyme” value at DPP4 [2] (setting [7]) came out at 98 ± 26.9. The “Inhibition Mode” value at DPP4 [2] is recorded as “competitive”. The compound also registered a logIC50 on DPP4 [1] of 1.431. Besides, the IC50 against DPP4 [1] (IC50, DPP4, triplicate) came out at 27 ± 0.5 nM. The inhibition at 0.08 µM on DPP4 [1] (setting [4]) is 84.4%; at DPP4 [1] (setting [5]), 12.1%.
At DPP4 [1] (IC50, DPP4, triplicate), `O=C1CSC(c2ccc(Cl)cc2Cl)N1c1nc2ccc(OC(F)(F)F)cc2s1` (stereo not shown) [h5] returned an IC50 of 23.7 ± 2 nM. The inhibition at 0.08 µM was 45% on DPP4 [1] (setting [4]) and 14% at DPP4 [1] (setting [5]).
The like results for `O=C1CSC(c2ccc(F)cc2)N1c1nc2ccc(OC(F)(F)F)cc2s1` (stereo not shown) [h6] were, in that order, > 100 nM, 46.8% and 0%.
For `O=C1CSC(c2ccc([N+](=O)[O-])cc2)N1c1nc2ccc(OC(F)(F)F)cc2s1` (stereo not shown) [h7], in that order: 25.5 ± 3 nM, 67% and 55%.
For the compound `O=C1CSC(c2ccc(Cl)cc2)N1c1nc2ccc(OC(F)(F)F)cc2s1` (stereo not shown) [h8], at DPP4 [2] (setting [7]), the “Κm of the enzyme” value is listed as 167.9 ± 15.8. Besides, on DPP4 [2], the “Inhibition Mode” value is reported as “mixed”. The compound also displayed an IC50 at DPP4 [1] (IC50, DPP4, triplicate) of 90.6 ± 8.8 nM. Besides, the inhibition at 0.08 µM is 45% on DPP4 [1] (setting [4]) and 26% on DPP4 [1] (setting [5]).
As for `COc1ccc(C2SCC(=O)N2c2nc3ccc(OC(F)(F)F)cc3s2)cc1` (stereo not shown) [h9], the “Inhibition Mode” value at DPP4 [2] is on record as “mixed”. Besides, on DPP4 [1] (IC50, DPP4, triplicate), inhibition was half-maximal at 72.3 ± 5.2 nM (IC50). The figures for the inhibition at 0.08 µM on DPP4 [1] (setting [4]) and at DPP4 [1] (setting [5]) were 52.3% and 37.6%, respectively.
`O=C1CSC(c2ccc(O)cc2)N1c1nc2ccc(OC(F)(F)F)cc2s1` (stereo not shown) [h10]: on DPP4 [1] (IC50, DPP4, triplicate), the IC50 is > 100 nM. Besides, the inhibition at 0.08 µM at DPP4 [1] (setting [4]) came to 38%; on DPP4 [1] (setting [5]), 0%.
In the case of `CC#CCn1c(N2CCC[C@@H](N)C2)nc2c1c(=O)n(Cc1nc(C)c3ccccc3n1)c(=O)n2C` [linagliptin], in data set [3], the “excreted unmodified in the feces” value is on record as 87%.
For `O=C1CSC(c2c(F)cccc2Cl)N1c1nc2ccc(C34CC5CC(CC(C5)C3)C4)cc2s1` (stereo not shown) [m2, 3-(6-Ad-benzo[d]thiazol-2-yl)-2-(2-F,6-Cl-phenyl) thiazolidin-4-one], the “Κm of the enzyme” value on DPP4 [2] (compound concentration 0.060 μΜ) is recorded as 30.6 ± 2.7. In addition, the “Inhibition Mode” value on DPP4 [2] is reported as “uncompetitive”. Moreover, the concentration for half-maximal inhibition (IC50) on DPP4 [1] (IC50, DPP4, triplicate) worked out at 71.5 ± 8.3 nM. For the same compound, the results for the inhibition at 0.08 µM at DPP4 [1] (setting [4]) and at DPP4 [1] (setting [5]) were 52% and 69.7%, respectively.
In the case of `Cc1cc(C23CC4CC(CC(C4)C2)C3)cc2sc(N3C(=O)CSC3c3c(Cl)cccc3Cl)nc12` (stereo not shown) [n1, 3-(4-CH3,6-Ad-benzo[d]thiazol-2-yl)-2-(2,6-di-Cl-phenyl) thiazolidin-4-one], the “Κm of the enzyme” value at DPP4 [2] (setting [8]) turned out to be 49.8 ± 0.6. Besides, the “Inhibition Mode” value on DPP4 [2] is on record as “non-competitive”. The compound further returned an IC50 against DPP4 [1] (IC50, DPP4, triplicate) of 137 ± 4.6 nM. In addition, the results for the inhibition at 0.08 µM on DPP4 [1] (setting [4]) and on DPP4 [1] (setting [5]) were 36.8% and 37.2%, respectively.
For `Cc1cc(C23CC4CC(CC(C4)C2)C3)cc2sc(N3C(=O)CSC3c3c(F)cccc3F)nc12` (stereo not shown) [n2], the “Κm of the enzyme” value on DPP4 [2] (setting [8]) was 117.2 ± 1.5. Besides, the “Inhibition Mode” value at DPP4 [2] is reported as “competitive”. At DPP4 [1], this compound returned a logIC50 of 1.681. Further, the 50% inhibitory concentration (IC50) was 48 nM on DPP4 [1] (IC50 (as printed in Figure 4), printed in the picture of Figure 4 without unit) and 48.3 ± 5.2 nM on DPP4 [1] (IC50, DPP4, triplicate). For the same compound, the figures for the inhibition at 0.08 µM on DPP4 [1] (setting [4]) and at DPP4 [1] (setting [5]) were 66.3% and 0%, respectively.
Regarding `N[C@@H](CC(=O)N1CCn2c(nnc2C(F)(F)F)C1)Cc1cc(F)c(F)cc1F` [sitagliptin], the “ends unmodified in the urine” value in data set [3] was 79%.
